According to ChEMBL document CHEMBL1201862, “PubChem BioAssay data set” (2004):
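All cell lines were grown in 96-well plates and treated with compound for 48 hours. GI50 marks 50% less growth.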 Activity calls are given as the source filed them. Rule as the data show it: active = GI50 up to about 1.1 µM and inactive = higher.

What was measured:
Test in all cases: growth of human tumour cells (NCI), 48 h
[1] = test system: 786-0
[2] = test system: A498
[3] = test system: A549
[4] = test system: ACHN
[5] = test system: COLO 205
[6] = test system: HT-29
[7] = test system: KM12
[8] = test system: MOLT-4
[9] = test system: NCI-H23
[10] = test system: NCI-H460
[11] = test system: SNB-19
[12] = test system: SNB-75
[13] = test system: SW-620
[14] = test system: UACC-257
[15] = test system: UACC-62

Measured: GI50

O=C(c1ccc(Cl)cc1Cl)N(/N=C/C=C/c1ccccc1)c1nnc(-c2ccccc2)c(-c2ccccc2)n1
inactive: [1] > 100 µM | [2] > 100 µM | [3] > 100 µM | [4] > 100 µM | [5] > 100 µM | [6] > 100 µM | [7] > 100 µM | [8] 70 µM | [9] > 100 µM | [10] > 100 µM | [11] > 100 µM | [12] > 100 µM | [13] > 100 µM | [14] > 100 µM | [15] > 100 µM

O=c1c2ccccc2nc(-c2ccccc2)n1NC1OC(CO)C(O)C(O)C1O (configuration not stated)
inactive: [1] > 100 µM | [2] > 100 µM | [3] > 100 µM | [4] > 100 µM | [5] > 100 µM | [6] > 100 µM | [7] > 100 µM | [8] > 100 µM | [9] > 100 µM | [10] > 100 µM | [11] > 100 µM | [12] 85.3 µM | [13] > 100 µM | [14] > 100 µM | [15] > 100 µM

Clc1ccccc1/C=C/c1cscn1
inactive: [2] > 100 µM | [4] > 100 µM | [6] > 100 µM | [7] > 100 µM | [8] > 100 µM | [9] > 100 µM | [10] > 100 µM | [11] > 100 µM | [12] > 100 µM | [14] > 100 µM | [15] > 100 µM

CC(C)CC(N)C(=O)OCN1C(=O)C2C3C=CC(C2C1=O)C1C2C(=O)N(COC(=O)C(N)CC(C)C)C(=O)C2C31 (configuration not stated)
inactive: [1] > 100 µM | [2] > 100 µM | [3] > 100 µM | [4] > 100 µM | [5] > 92.3 µM | [6] > 100 µM | [7] > 100 µM | [8] > 100 µM | [9] > 100 µM | [10] > 59.7 µM | [11] > 100 µM | [12] > 75 µM | [13] > 53.6 µM | [14] > 100 µM | [15] > 100 µM

O=C1[C@@H]2C(c3c(Cl)cccc3Cl)=NO[C@@H]2C(=O)N1c1ccc(Cc2ccc(N3C(=O)[C@H]4C(c5c(Cl)cccc5Cl)=NO[C@H]4C3=O)cc2)cc1
inactive: [1] > 100 µM | [2] > 100 µM | [3] > 100 µM | [4] > 100 µM | [5] > 100 µM | [6] > 100 µM | [7] > 100 µM | [8] > 100 µM | [9] > 100 µM | [10] > 100 µM | [12] > 100 µM | [13] > 100 µM | [14] > 100 µM | [15] > 100 µM

COc1cccc(N2C(=O)[C@H]3CC(C)c4c([nH]c5ccccc45)[C@H]3C2=O)c1 (some centres not stated)
inactive: [1] 21.7 µM | [2] 89.7 µM | [3] 41.3 µM | [5] 36.1 µM | [6] 36.1 µM | [7] 57.5 µM | [8] 74.1 µM | [9] 45.7 µM | [10] > 100 µM | [11] 28.4 µM | [12] 19.6 µM | [13] > 10 µM | [14] 42.9 µM | [15] 39.4 µM

c1cc2[se][se]c3c4cccc5[se][se]c(c(c1)c23)c54
inactive: [1] > 100 µM | [2] > 100 µM | [3] > 100 µM | [4] > 100 µM | [5] > 100 µM | [6] > 100 µM | [7] > 100 µM | [8] > 100 µM | [9] > 100 µM | [10] > 100 µM | [11] > 100 µM | [12] > 100 µM | [13] > 100 µM | [14] > 100 µM | [15] > 100 µM

O=C(O)c1cc(=O)c2cc(C(=O)c3cccs3)c(Cl)c(Cl)c2o1
inactive: [1] > 100 µM | [2] > 100 µM | [3] > 100 µM | [4] > 100 µM | [6] > 100 µM | [7] > 100 µM | [8] > 100 µM | [9] > 100 µM | [10] > 100 µM | [11] > 100 µM | [12] > 100 µM | [13] > 100 µM | [14] > 100 µM | [15] > 100 µM

COc1ccc(COCC(Cn2ccnc2)OCc2ccc(C(=O)O)cc2)cc1 (configuration not stated)
inactive: [1] > 100 µM | [2] > 100 µM | [3] > 100 µM | [4] > 100 µM | [5] > 100 µM | [6] > 100 µM | [7] > 100 µM | [8] > 100 µM | [9] > 100 µM | [10] > 100 µM | [12] 59.6 µM | [13] > 100 µM | [14] > 100 µM | [15] > 100 µM
